Results from US11291630B2, “Gelling compositions for treating malignant tumours and/or preventing tumour recurrence” (Centre National de la Recherche Scientifique (CNRS), priority 2015, dated 2022).

Assay: Measurement of gelation temperature by DSC and rheology (Example 1)
Assay type: physicochemical
Conditions: addition of 0.5% 5-FU to gel P407/P188/Alginate (20/2/1) (FIG. 2)
Procedure: The gelation temperature (Tgel) was determined by Differential Scanning calorimetry (DSC) and rheology.
By DSC: between 20-35 mg of the solution were sealed in aluminium pans and placed into the DSC instrument (DSC 1, Mettler Toledo). An empty aluminium pan (size: 40 μL) served as a reference sample. The instrument was equilibrated at 5° C. for 7 min prior to initiation of the scans. The sample was then heated to 40° C. at a heating rate of 5° C./min. Data analysis was performed with the software preinstalled in the instrument (STARe Software). The gelation temperature was determined as the small enthalpy change which was visible around at 10-12° C. above the big endothermic peak caused by micellization of the poloxamers, as already done in other studies (Nie et al, Int. J. Nanomedicine. 6 (2011) 151-166. doi:10.2147/IJN.S15057).
By rheology: a deformation was applied and varied between 0.01 to 100% at a fixed frequency of 1 Hz with a cone/plan mobile with an angle of 1°, a diameter of 50 mm and with a gap of 0.1 mm. The sample was left at room temperature for 1 hour, then approximately 750 μL was loaded on the pelletier plan which is submitted to a temperature increase. The viscoelastic moduli G′ and G″ are measured. The gelation temperature corresponds to the curve intersections.

SMILES: O=c1[nH]cc(F)c(=O)[nH]1 [Composition 5-FU, 5-Fluorouracil]
- increase of the gelation temperature: 2 °C
